From article PMC4842970, “Bioactivity Focus of α-Cyano-4-hydroxycinnamic acid (CHCA) Leads to Effective Multifunctional Aldose Reductase Inhibitors” (Scientific Reports, 2016) come the findings set out here.

Where two headings read alike, the source gives them in different places.

Data set [1] in a line: ORACFL radical absorbance capacity assay. The source says:
With the CHCA scaffold, we hypothesized that 5a–j should have antioxidant activity. Therefore, a radical absorbance capacity assay (ORACFL)[41] was employed to assess their capacities. This method is based on the inhibition of peroxyl-radical-induced oxidation initiated by thermal decomposition of azo-compounds, in this case 2,2′-azo-bis (2-amidinopropane) dihydrochloride (AAPH). Trolox (6-hydroxy-2,5,7,8-tetramethylchroman-2-carboxylic acid) was used as a standard reference. Data is expressed as micromoles of Trolox equivalents (TE) per […] of sample (μmol TE/ml or U/ml).
Antioxidant capacity was determined according to the procedure described previously.

The next data set deals with T1, human ALR2 (Homo sapiens, UniProt P15121).
T1 construct: purchased WAKO Pure Chemical Industries, Ltd. (Japan); host or cells: baculovirus-insect cell expression system
The experiment in a line: ALR2 inhibition (in vitro reduction of D,L-glyceraldehyde). The class given is biochemical. How it is done: Human ALR2 was purchased from WAKO Pure Chemical Industries, Ltd. (Japan), which was purified from the culture medium of baculovirus-insect cell expression system. […] ALR2 inhibition was determined spectrophotometrically according to the procedure described previously.

Another data set deals with ALR2. Description: AR (ALR2) activity in glucose-treated embryos (chicken AR ELISA kit). Conditions: glucose-treated chick embryos, EDD 5, edaravone group (0.1 nM). The class given is in vivo. How it is done: As expected, treatment of 5f decreased ALR2 activity in a dose-dependent manner. […] However, EDA, which is a clinical radical scavenger, was shown no effect on the inhibition of ALR2.
Embryos on EDD 5 were homogenized with chicken saline and centrifuged (4 °C, 10000 rpm, 10 min). The supernatant was used for measuring AR activity in the sample. A chicken AR ELISA kit (Jianglai Biotechnology, China) were used for detection. The concentration of AR in the samples was then determined by comparing the OD of the samples to the standard curve. The sorbitol contents of the chick embryo were determined by a Sorbitol Colorimetric Assay Kit (BioVision, USA). In the assay, sorbitol is oxidized to fructose with the proportional development of intense color with an absorbance maximum at 560 nm.

Data set [2] has as its system oxidative stress (ROS, MDA, ORAC). The experiment in a line: ROS generation, MDA and ORAC level in chick embryos. It is filed as in vivo. As to conditions: glucose-treated chick embryos, EDD 5. The source says:
It has been reported that hyperglycemia increased the production of ROS. Blocking the generation of ROS could at least partially prevent the possible damage of hyperglycemia. No doubt, oxidative stress will be induced in glucose treated embryos. This conclusion was confirmed by the determination of ROS and malondialdehyde (MDA) levels, and the anti-oxidation ability in chick embryos on EDD 5. […] However, treatment of 5f decreased both levels of ROS and MDA in a dose-dependent manner.
In addition, the ORAC level is indicative of the anti-oxidative capacity.
ROS generation ratios in the eyes of EDD 5 chick embryos were detected with 5 μmol 2′,7′-dichlorofluorescein-diacetate (DCFH-DA, Sigma-Aldrich). The peroxide content was determined by measuring thiobarbituric-acid-reactive substances (TBARS) with a commercial MDA kit (Nanjing Jiancheng Institute of Biotechnology, Nanjing, China). The procedures for the ORAC assay were modified from the previously described method. The automated ORAC assay was carried out on a decay of the fluorescein signal and determined with an excitation/emission filter pair of 485/527 nm in a GENios Lueifcrase microplate reader (TECAN) at 37 °C. Final results were calculated on the basis of the difference in the area under the fluorescein decay curve between the blank and each sample.

In another data set the test system is chick embryo. The experiment in a line: Chick embryo model of hyperglycemia: mortality, NTD rate, body weight. As to conditions: glucose 0.4 mmol/egg, EDD 5, dose 0.1 nM. It is filed as in vivo. How it is done: In order to evaluate further the potential of 5f as an agent to treat diseases caused by high glucose inside the system, a chick embryo model of treatment with high glucose was set up.
Fertilized leghorn eggs were purchased from the Avian Farm of the South China Agriculture University (Guangzhou, China). Before the injection of glucose (Sigma–Aldrich, MO, USA), the eggs were incubated in a humidified incubator (Grumbach, Germany) at 37 °C with 60% humidity until the embryos reached the desired stage. […] Glucose was dissolved in 200 μL chicken saline and injected on EDD 1. Mortality, abnormality and body weight measurements were made on EDD 5. Embryos were removed from their eggs and weighed. The percent mortality was measured by counting the number of dead versus all embryos. The rate of NTD of the embryos was assessed by the number of NTD versus survival embryos.

Setting [3] is: human ALR2, D,L-glyceraldehyde as substrate, read-out: IC50 (ALR2 inhibition).

As to `Cc1c(C)c2c(c(C)c1O)CCC(C)(C(=O)O)O2` (stereo not drawn) [Trolox, 6-hydroxy-2,5,7,8-tetramethylchroman-2-carboxylic acid, reference compound], the ORAC in data set [1] (3.125 μg/ml) was found to be 95.3 ± 3.7 U/ml; in data set [1] (6.25 μg/ml) it was 92.8 ± 2.7 U/ml; in data set [1] (12.5 μg/ml) it was 85.2 ± 4.3 U/ml.

`N#CC(=Cc1ccc(O)cc1)C(=O)O` [CHCA, α-cyano-4-hydroxycinnamic acid]: the ORAC in data set [1] (3.125 μg/ml) stood at 52.3 ± 3.1 U/ml; in data set [1] (6.25 μg/ml), 51.2 ± 1.1 U/ml; in data set [1] (12.5 μg/ml) it was 48.8 ± 1.3 U/ml. On human ALR2, the IC50 (as a rule, the point on the concentration scale where inhibition reaches its midpoint) is 133 ± 1.8 nM.

Take `O=c1c2cc(O)c(O)cc2oc2cc(O)c([C@@H]3O[C@H](CO)[C@@H](O)[C@H](O)[C@H]3O)c(O)c12` [Mangiferin, reference compound]: the figures for the ORAC in data set [1] (3.125 μg/ml), in data set [1] (6.25 μg/ml) and in data set [1] (12.5 μg/ml) were 75.3 ± 0.4 U/ml, 74.8 ± 0.8 U/ml and 73.2 ± 7.2 U/ml, respectively. The IC50 at human ALR2 (setting [3]) came to 138 ± 2.2 nM.

With `CC(=O)N[C@H](COCc1ccccc1)C(=O)NCCNC(=O)/C(C#N)=C/c1ccc(O)cc1` [Compound 5d, (R,E) – N - (2 - (2-acetamido-3-(benzyloxy)propanamido)ethyl)-2-cyano-3-(4-hydroxyphenyl)acrylamide], the melting point (usually the temperature, or range, at which the solid turns liquid) fell in the range of 175 to 177 °C. Further, in data set [1] (3.125 μg/ml), the ORAC amounted to 38.3 ± 1.9 U/ml. The molecule also registered an ORAC in data set [1] (6.25 μg/ml) of 35.4 ± 3.2 U/ml. The molecule further displayed an ORAC in data set [1] (12.5 μg/ml) of 33.3 ± 4.1 U/ml. Besides, the IC50 at human ALR2 (setting [3]) was found to be 404 ± 7 nM.

Take `CC(C)(C)C(=O)N[C@@H](COCc1ccccc1)C(=O)NCCNC(=O)/C(C#N)=C/c1ccc(O)cc1` [Compound 5g, (S,E) - N - (2-(2-pivalamido-3-(benzyloxy)propanamido)ethyl)-2-cyano-3-(4-hydroxyphenyl)acrylamide]: the ORAC in data set [1] (3.125 μg/ml) is recorded as 38.3 ± 2.6 U/ml; in data set [1] (6.25 μg/ml), 33.9 ± 1.4 U/ml; in data set [1] (12.5 μg/ml), 30.4 ± 3.7 U/ml. Moreover, the IC50 on human ALR2 (setting [3]) stood at 273 ± 4.6 nM.

For `CC1=NN(c2ccccc2)C(=O)C1` [Edaravone, reference compound], the “ALR2 activity in embryo” value with ALR2 is “no effect”. Also, the “ORAC level (anti-oxidative capacity) of embryo” value in data set [2] is given as “recovered”. In addition, in the data set with chick embryo, the Body weight is given as 310.8 ± 11.6 mg, the “Death (/n)” value amounted to 20.0% and the “NTD (/survival)” value is given as 18.8%.

Take `CC(=O)N1CCC[C@@H]1C(=O)NCCNC(=O)/C(C#N)=C/c1ccc(O)cc1` [Compound 5b, (R,E) -1-acetyl - N - (2-(2-cyano-3-(4-hydroxyphenyl)acrylamido)ethyl)pyrroli-dine-2-carboxamide]: the ORAC in data set [1] (3.125 μg/ml) was found to be 47.1 ± 2.4 U/ml; in data set [1] (6.25 μg/ml), 44.1 ± 2.5 U/ml; in data set [1] (12.5 μg/ml) it was 42.9 ± 3.3 U/ml. For the same molecule, the IC50 at human ALR2 (setting [3]) came out at 136 ± 2.4 nM.

Take `CC(=O)N[C@@H](COCc1ccccc1)C(=O)NCCCNC(=O)/C(C#N)=C/c1ccc(O)cc1` [Compound 5e, (S,E) – N - (3-(2-acetamido-3-(benzyloxy)propanamido)propyl)-2-cyano-3-(4-hydroxyphenyl)acrylamide]: the ORAC in data set [1] (3.125 μg/ml) came out at 65.7 ± 2.7 U/ml; in data set [1] (6.25 μg/ml), 62.6 ± 1.5 U/ml; in data set [1] (12.5 μg/ml), 60.4 ± 2.2 U/ml. The half-inhibitory concentration (IC50) at human ALR2 (setting [3]) is 99.8 ± 2 nM.

On to `CC(=O)N[C@@H](COCc1ccccc1)C(=O)NCCNC(=O)/C(C#N)=C/c1ccc(O)cc1` [Compound 5c, (S,E) – N - (2 - (2-acetamido-3-(benzyloxy)propanamido)ethyl)-2-cyano-3-(4-hydroxyphenyl)acrylamide], for which the melting point was in the range of 176 to 178 °C. Also, the ORAC in data set [1] (3.125 μg/ml) is given as 32.4 ± 1.8 U/ml. This molecule displayed an ORAC in data set [1] (6.25 μg/ml) of 30.4 ± 1.7 U/ml. For the same molecule, the ORAC in data set [1] (12.5 μg/ml) is 26.4 ± 2.9 U/ml. In addition, the IC50 at human ALR2 (setting [3]) was determined as 316 ± 6.2 nM.

In the case of `CC(C)(C)C(=O)N[C@H](COCc1ccccc1)C(=O)NCCCNC(=O)/C(C#N)=C/c1ccc(O)cc1` [Compound 5j, (R,E) - N - (3-(2-pivalamido-3-(benzyloxy)propanamido)propyl)-2-cyano-3-(4-hydroxyphenyl)acrylamide], the ORAC in data set [1] (3.125 μg/ml) turned out to be 38.6 ± 1.9 U/ml; in data set [1] (6.25 μg/ml), 35.3 ± 1.7 U/ml; in data set [1] (12.5 μg/ml) it was 30.6 ± 2.2 U/ml. On human ALR2 (setting [3]), the IC50 worked out at 247 ± 4.5 nM.

Turning to `CC(C)(C)C(=O)N[C@@H](COCc1ccccc1)C(=O)NCCCNC(=O)/C(C#N)=C/c1ccc(O)cc1` [Compound 5i, (S,E) - N - (3-(2-pivalamido-3-(benzyloxy)propanamido)propyl)-2-cyano-3-(4-hydroxyphenyl)acrylamide], the ORAC in data set [1] (3.125 μg/ml) stood at 36.4 ± 3.5 U/ml; in data set [1] (6.25 μg/ml), 35.6 ± 3.9 U/ml; in data set [1] (12.5 μg/ml), 35.3 ± 2.1 U/ml. Besides, the IC50 on human ALR2 (setting [3]) was 221 ± 3.9 nM.

In the case of `CC(C)(C)C(=O)N[C@H](COCc1ccccc1)C(=O)NCCNC(=O)/C(C#N)=C/c1ccc(O)cc1` [Compound 5h, (R,E) - N - (2-(2-pivalamido-3-(benzyloxy)propanamido)ethyl)-2-cyano-3-(4-hydroxyphenyl)acrylamide], the ORAC in data set [1] (3.125 μg/ml) stood at 50.3 ± 3.2 U/ml; in data set [1] (6.25 μg/ml) it was 45.2 ± 1.3 U/ml; in data set [1] (12.5 μg/ml), 42.8 ± 1.1 U/ml. At human ALR2 (setting [3]), the IC50 is 252 ± 4.6 nM.

With `CC(=O)N1CCC[C@H]1C(=O)NCCNC(=O)/C(C#N)=C/c1ccc(O)cc1` [Compound 5a, (S,E) - 1 - acetyl -N-(2-(2-cyano-3-(4-hydroxyphenyl)acrylamido)ethyl)pyrroli-dine-2-carboxamide], the ORAC is 57.0 ± 2.3 U/ml in data set [1] (3.125 μg/ml), 52.4 ± 2.1 U/ml in data set [1] (6.25 μg/ml) and 49.8 ± 1.7 U/ml in data set [1] (12.5 μg/ml). For the same molecule, the IC50 at human ALR2 (setting [3]) is 137 ± 2.9 nM.
